IC50 data for 15 molecules are collected here from patent US20170298060A1, “PYRROLOPYRIDINE RETINOIC ACID RECEPTOR-RELATED ORPHAN RECEPTOR MODULATORS AND USES THEREOF” (INNOV17 LLC, priority 2016, published 2017).

Assay [1] relates to IL-17A. Description: Human TH17 cytokine inhibition as measured by ELISA (IL-17A). In kind it is cell-based. As to conditions: 72 h; human CD4+ T cells under TH17-polarizing conditions, 3 days, supernatant ELISA, 0.1% DMSO. As to the method: (§1) Human TH17 Cytokine Inhibition as Measured by ELISA
(§2) Peripheral blood mononuclear cells (PBMCs) were sourced from freshly prepared leukocyte enriched plasma (buffy coat) from healthy donors (New York Blood Center). PBMCs were isolated by density gradient centrifugation using Ficoll-Paque™ PLUS (GE Healthcare). Human CD4+ T cells were seeded into 96-well plates (5×10^4 cells/well) and activated with plate-bound anti-human (h)-CD3 antibody and soluble h-aCD28 (both at 1 ug/ml; eBioscience) and differentiated into TH17 cells with 20 ng/mL h-IL-6, 5 ng/mL h-TGF-β1, 10 ng/mL h-IL-23 (eBioscience) and 10 ng/mL IL-1β (Miltenyi Biotec) in serum-free TexMACS Medium (Miltenyi Biotec) supplemented with 1% Penicillin/Streptomycin (Lonza) for 3 days. CD4+ T cells propagated under TH17-polarizing conditions were cultured in the presence or absence of various concentrations of compounds with a final concentration of 0.1% DMSO. Supernatants were collected and stored at −20° C. until assayed for IL-17A and IL-17F levels by “Ready-Set-Go” ELISA kits (eBioscience) as per manufacturer's instructions. Endpoint absorbance was read at 450 nm using a microplate reader (Perkin Elmer).
A general note: In an ELISA, binding on a coated surface is turned into a signal by an enzyme label.

The subject of assay [2] is IL-17F. As to the kind of experiment: Human TH17 cytokine inhibition as measured by ELISA (IL-17F). The conditions noted are these: 72 h; human CD4+ T cells under TH17-polarizing conditions, 3 days, supernatant ELISA, 0.1% DMSO. In kind it is cell-based. As to the method: as §1, §2

Regarding `O=C(c1ccccc1)N1CCC(Cn2ccc3cc(-c4cn[nH]c4)ncc32)CC1` [Example 1, (4-((5-(1H-pyrazol-4-yl)-1H-pyrrolo[2,3-c]pyridin-1-yl)methyl)piperidin-1-yl)(phenyl)methanone], the IC50 in assay [1] and in assay [2] was below 10 µM throughout.

Take `CC(C)CC(=O)N1CCC(Cn2ccc3cc(-c4cn[nH]c4)ncc32)CC1` [Example 3]: the IC50 in assay [1] and in assay [2] was below 10 µM in each case.

`O=C(c1ccccc1F)N1CCC(Cn2ccc3cc(-c4cn[nH]c4)ncc32)CC1` [Example 4, (4-((5-(1H-pyrazol-4-yl)-1H-pyrrolo[2,3-c]pyridin-1-yl)methyl)piperidin-1-yl)(2-fluorophenyl)methanone]: the IC50 in assay [1] and in assay [2] was below 10 µM each time.

For the molecule `O=S(=O)(CCc1ccccc1)N1CCC(Cn2ccc3cc(-c4cn[nH]c4)ncc32)CC1` [Example 5, 1-((1-(phenethylsulfonyl)piperidin-4-yl)methyl)-5-(1H-pyrazol-4-yl)-1H-pyrrolo[2,3-c]pyridine], the IC50 in assay [1] and in assay [2] was below 10 µM throughout.

For the molecule `CC(C)CS(=O)(=O)N1CCC(Cn2ccc3cc(-c4cn[nH]c4)ncc32)CC1` [Example 6, 1-((1-(isobutylsulfonyl)piperidin-4-yl)methyl)-5-(1H-pyrazol-4-yl)-1H-pyrrolo[2,3-c]pyridine], the IC50 in assay [1] and in assay [2] was below 10 µM each time.

Take `O=S(=O)(c1ccccc1)N1CCC(Cn2ccc3cc(-c4cn[nH]c4)ncc32)CC1` [Example 7, 1-((1-(phenylsulfonyl)piperidin-4-yl)methyl)-5-(1H-pyrazol-4-yl)-1H-pyrrolo[2,3-c]pyridine]: the IC50 in assay [1] and in assay [2] was below 10 µM in each case.

Consider `O=S(=O)(c1ccccc1F)N1CCC(Cn2ccc3cc(-c4cn[nH]c4)ncc32)CC1` [Example 8, 1-((1-((2-fluorophenyl)sulfonyl)piperidin-4-yl)methyl)-5-(1H-pyrazol-4-yl)-1H-pyrrolo[2,3-c]pyridine], for which the IC50 in assay [1] and in assay [2] was below 10 µM each time.

In the case of `O=C(c1ccccc1)N1CCC(Cn2ccc3cc(-c4cn[nH]c4)cnc32)CC1` [Example 9, (4-((5-(1H-pyrazol-4-yl)-1H-pyrrolo[2,3-b]pyridin-1-yl)methyl)piperidin-1-yl)(phenyl)methanone], the IC50 in assay [1] and in assay [2] was below 10 µM throughout.

On to `O=C(CCc1ccccc1)N1CCC(Cn2ccc3cc(-c4cn[nH]c4)cnc32)CC1` [Example 10, 1-(4-((5-(1H-pyrazol-4-yl)-1H-pyrrolo[2,3-b]pyridin-1-yl)methyl)piperidin-1-yl)-3-phenylpropan-1-one], for which the IC50 in assay [1] and in assay [2] was below 10 µM in each case.

For the molecule `CC(C)CC(=O)N1CCC(Cn2ccc3cc(-c4cn[nH]c4)cnc32)CC1` [Example 11, 1-(4-((5-(1H-pyrazol-4-yl)-1H-pyrrolo[2,3-b]pyridin-1-yl)methyl)piperidin-1-yl)-3-methylbutan-1-one], the IC50 in assay [1] and in assay [2] was below 10 µM each time.

On to `O=C(c1ccccc1F)N1CCC(Cn2ccc3cc(-c4cn[nH]c4)cnc32)CC1` [Example 12, (4-((5-(1H-pyrazol-4-yl)-1H-pyrrolo[2,3-b]pyridin-1-yl)methyl)piperidin-1-yl)(2-fluorophenyl)methanone], for which the IC50 in assay [1] and in assay [2] was below 10 µM in each case.

Regarding `O=S(=O)(CCc1ccccc1)N1CCC(Cn2ccc3cc(-c4cn[nH]c4)cnc32)CC1` [Example 13, 1-((1-(phenethylsulfonyl)piperidin-4-yl)methyl)-5-(1H-pyrazol-4-yl)-1H-pyrrolo[2,3-b]pyridine], the IC50 in assay [1] and in assay [2] was below 10 µM each time.

For the molecule `CC(C)CS(=O)(=O)N1CCC(Cn2ccc3cc(-c4cn[nH]c4)cnc32)CC1` [Example 14, 1-((1-(isobutylsulfonyl)piperidin-4-yl)methyl)-5-(1H-pyrazol-4-yl)-1H-pyrrolo[2,3-b]pyridine], the concentration for half-maximal inhibition (IC50) in assay [1] and in assay [2] was below 10 µM each time.

Regarding `O=S(=O)(c1ccccc1)N1CCC(Cn2ccc3cc(-c4cn[nH]c4)cnc32)CC1` [Example 15, 1-((1-(phenylsulfonyl)piperidin-4-yl)methyl)-5-(1H-pyrazol-4-yl)-1H-pyrrolo[2,3-b]pyridine], the IC50 in assay [1] and in assay [2] was below 10 µM in each case.

`O=S(=O)(c1ccccc1F)N1CCC(Cn2ccc3cc(-c4cn[nH]c4)cnc32)CC1` [Example 16, 1-((1-((2-fluorophenyl)sulfonyl)piperidin-4-yl)methyl)-5-(1H-pyrazol-4-yl)-1H-pyrrolo[2,3-b]pyridine]: the IC50 in assay [1] and in assay [2] was below 10 µM each time.

Usually IC50 stands for the concentration at which inhibition is half-maximal.
